Where “and” joins values, the source holds several entries; their conditions need not be identical. Equal values may be shown once. Read-outs that look alike come from different tables or passages of the source. Non-standard residues stand in square brackets, D forms with d. Residues, ends and D or L forms follow the SMILES beside them. *: point of attachment. Sta = CC(C)C[C@H](N)[C@@H](O)CC(=O)O; Isovaleryl = CC(C)CC(=O)*
How the values were obtained:
TLR4 signaling = test system: TLR4 signaling; set-up: method as in MedChemExpress [1][2][3]; details: ref MedChemExpress [1][2][3]; cited from earlier work
Rlig1-AMP = molecular target: T1, Rlig1-AMP (Homo sapiens, UniProt Q8N999); experiment: FRET-based high-throughput screening of inhibitors for Rlig1-AMP; format: biochemical; details: for Raw data [w Enyzm]: with enzyme; for Raw data [w/o Enzym]: without enzyme
T1 construct: made in house; host or cells: E. coli BL21 (DE3), pET15b-Rlig1
T1 sequence (Q8N999 whole entry): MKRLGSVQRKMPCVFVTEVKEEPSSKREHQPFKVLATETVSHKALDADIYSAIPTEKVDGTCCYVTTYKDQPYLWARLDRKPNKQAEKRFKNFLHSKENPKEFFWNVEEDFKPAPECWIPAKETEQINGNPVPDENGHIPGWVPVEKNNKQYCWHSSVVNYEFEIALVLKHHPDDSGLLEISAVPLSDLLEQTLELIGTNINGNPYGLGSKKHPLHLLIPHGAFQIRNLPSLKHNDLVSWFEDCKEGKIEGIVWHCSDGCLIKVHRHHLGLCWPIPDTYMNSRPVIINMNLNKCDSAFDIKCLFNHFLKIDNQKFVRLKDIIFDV

PI5P4Kα = test system: PI5P4Kα; set-up: method as in MedChemExpress [1]; details: ref MedChemExpress [1], cited from earlier work
[1] = ref MedChemExpress, cited from earlier work
protein kinase C (PKC) = molecular target: protein kinase C (PKC); set-up: method as in MedChemExpress; details: PKC activity; ref MedChemExpress; cited from earlier work
[2] = DMSO; ultrasonic/warming; ref MedChemExpress; cited from earlier work
proctase = molecular target: proctase; set-up: method as in MedChemExpress; details: ref MedChemExpress, cited from earlier work
acid protease = test system: acid protease; set-up: method as in MedChemExpress; details: ref MedChemExpress, cited from earlier work
pepsin = test system: pepsin; set-up: method as in MedChemExpress; details: ref MedChemExpress, cited from earlier work
[3] = test system: kinesin-like protein KIFC1 (HSET/KIFC1); set-up: method as in MedChemExpress; details: ref MedChemExpress; cited from earlier work
G9a = test system: G9a; set-up: method as in MedChemExpress [1]; details: ref MedChemExpress [1]; cited from earlier work
factor IXaβ (FIXa) = molecular target: factor IXaβ (FIXa); set-up: method as in MedChemExpress [1][2][3]; details: ref MedChemExpress [1][2][3]; cited from earlier work
[4] = test system: SHSY5Y neuroblastoma cells; set-up: method as in MedChemExpress; details: ref MedChemExpress, cited from earlier work
[5] = DMSO; ref MedChemExpress; cited from earlier work
Cdc25C = test system: Cdc25C; set-up: method as in MedChemExpress [1]; details: ref MedChemExpress [1]; cited from earlier work
Cdc25A = test system: Cdc25A; set-up: method as in MedChemExpress [1]; details: ref MedChemExpress [1]; cited from earlier work
[6] = in DMSO; ref MedChemExpress; cited from earlier work
Cdc25B = test system: Cdc25B; set-up: method as in MedChemExpress [1]; details: ref MedChemExpress [1]; cited from earlier work
[7] = molecular target: Acyl-coenzyme A: cholesterol acyltransferase (ACAT); set-up: method as in MedChemExpress [1]; details: rat liver microsomal ACAT; ref MedChemExpress [1]; cited from earlier work
Hsp90-TPR2A = molecular target: Hsp90-TPR2A; set-up: method as in MedChemExpress; details: interaction of Hsp90-TPR2A; ref MedChemExpress; cited from earlier work
FAAH [8] = test system: FAAH; set-up: method as in MedChemExpress; details: rat FAAH; ref MedChemExpress; cited from earlier work
FAAH [9] = test system: FAAH; set-up: method as in MedChemExpress; details: human FAAH; ref MedChemExpress; cited from earlier work
FAAH [10] = test system: FAAH; set-up: method as in MedChemExpress; details: mouse FAAH; ref MedChemExpress; cited from earlier work
[11] = test system: FLT3 internal tandem duplication (ITD); set-up: method as in MedChemExpress [1][2][3]; details: ref MedChemExpress [1][2][3]; cited from earlier work
FLT3 D835Y = test system: FLT3 D835Y; set-up: method as in MedChemExpress [1][2][3]; details: ref MedChemExpress [1][2][3]; cited from earlier work
FLT3 WT = test system: FLT3 WT; set-up: method as in MedChemExpress [1][2][3]; details: ref MedChemExpress [1][2][3]; cited from earlier work
[12] = sheet HTS hits, MedChemExpress library
[13] = sheet HTS hits, difference of raw data w/o and w enzyme
[14] = HTS hits, difference of raw data without and with enzyme
[15] = HTS hits, difference of raw data w/o and w enzyme
[16] = HTS hits, normalized value (npi)

## C/C(=N\N=C(N)N)c1cc(NC(=O)CCCCCCCCC(=O)Nc2cc(/C(C)=N/N=C(N)N)cc(/C(C)=N/N=C(N)N)c2)cc(/C(C)=N/N=C(N)N)c1.Cl.Cl.Cl.Cl [Semapimod (tetrahydrochloride)]
TLR4 signaling
  IC50: ~300 nM
Rlig1-AMP; [12]
  1-D Distance.npi: 101.371
Rlig1-AMP; [13]
  1-D Distance: 217
Rlig1-AMP; sheet HTS hits
  Raw data [w Enyzm]: 4067
  Raw data [w/o Enzym]: 3850

## CN(C)C/C=C/C(=O)Nc1ccc(C(=O)Nc2cccc(Nc3cc(-c4c[nH]c5ccccc45)ncn3)c2)cc1 [THZ-P1-2]
PI5P4Kα
  IC50: 190 nM
Rlig1-AMP; [12]
  1-D Distance.npi: 94.2865
Rlig1-AMP; [13]
  1-D Distance: 656
Rlig1-AMP; sheet HTS hits
  Raw data [w Enyzm]: 5306
  Raw data [w/o Enzym]: 4650

## O=C1c2c(O)ccc(O)c2C(=O)c2c(NCCNCCO)ccc(NCCNCCO)c21 [Mitoxantrone]
Rlig1-AMP; [14]
  1-D Distance: 308
Rlig1-AMP; HTS hits
  Raw data [w Enyzm]: 3553
  Raw data [w/o Enzym]: 3245
[1]; DMSO
  solubility: 62.5 mg/mL and 140.61 mM
[1]; H2O
  solubility: 100 mg/mL and 224.98 mM
Protein kinase C (PKC)
  IC50: 8500 nM

## CC(C)CC(=O)N[C@H](C(=O)N[C@H](C(=O)N[C@@H](CC(C)C)[C@@H](O)CC(=O)N[C@@H](C)C(=O)N[C@@H](CC(C)C)[C@@H](O)CC(=O)O)C(C)C)C(C)C [Pepstatin] (Isovaleryl-VV[Sta]A[Sta]-OH)
[2]
  solubility, DMSO: 125 mg/mL and 182.24 mM
proctase; substrate casein, read-out: IC50, casein-proctase
  IC50: 290 nM
proctase; substrate hemoglobin, read-out: IC50, hemoglobin-proctase
  IC50: 6.2 nM
Rlig1-AMP; [15]
  1-D Distance: 1754
Rlig1-AMP; HTS hits
  Raw data [w Enyzm]: 8928
  Raw data [w/o Enzym]: 10682
Acid protease; substrate casein, read-out: IC50, casein-acid protease
  IC50: 520 nM
Acid protease; substrate hemoglobin, read-out: IC50, hemoglobin-acid protease
  IC50: 260 nM
pepsin; substrate casein, read-out: IC50, casein-pepsin
  IC50: 150 nM
pepsin; substrate hemoglobin, read-out: IC50, hemoglobin-pepsin
  IC50: 4.5 nM

## CCCc1cc(C(=O)N[C@H](Cc2ccc(-c3cccc(OC(F)(F)F)c3)nc2)C(=O)N[C@@H]2CCNC2)sc1C [AZ82]
Rlig1-AMP; [15]
  1-D Distance: 670
Rlig1-AMP; [16]
  1-D Distance.npi: 96.1946
Rlig1-AMP; HTS hits
  Raw data [w Enyzm]: 8773
  Raw data [w/o Enzym]: 9443
[3]
  IC50: 300 nM
  Ki: 43 nM

## COc1cc2c(NCC3CCN(C)CC3)cc(-c3ccc(C)o3)nc2cc1OCCCN1CCCC1.Cl.Cl.Cl [CM-579 trihydrochloride]
G9a
  IC50: […]
Rlig1-AMP; [12]
  1-D Distance.npi: 80.8725
Rlig1-AMP; [13]
  1-D Distance: 1286
Rlig1-AMP; sheet HTS hits
  Raw data [w Enyzm]: 6218
  Raw data [w/o Enzym]: 7504

## CN1CCc2nc(C(=O)N[C@@H]3C[C@@H](C(=O)N(C)C)CC[C@@H]3NC(=O)C(=O)Nc3ccc(Cl)cn3)sc2C1.Cc1ccc(S(=O)(=O)O)cc1.O [Edoxaban (tosylate monohydrate)]
Factor IXaβ (FIXa)
  Ki: 41700 nM
Rlig1-AMP; [12]
  1-D Distance.npi: 77.5766
Rlig1-AMP; [13]
  1-D Distance: 1653
Rlig1-AMP; sheet HTS hits
  Raw data [w Enyzm]: 9167

## COc1nc(-c2cc(C)c(N[C@@H](C)c3ccc(F)cc3)nn2)ccc1-n1cnc(C)c1 [BPN-15606]
[4]; read-out: IC50, production of Aβ40
  IC50: 17 nM
[4]; read-out: IC50, production of Aβ42
  IC50: 7 nM
[5]
  solubility: 100 mg/mL and 238.97 mM
Rlig1-AMP; [15]
  1-D Distance: 1474
Rlig1-AMP; [16]
  1-D Distance.npi: 75.4488
Rlig1-AMP; HTS hits
  Raw data [w Enyzm]: 8858
  Raw data [w/o Enzym]: 10332

## Cc1ccc(Cn2cc(CNC3=C(Cl)C(=O)c4cccnc4C3=O)nn2)cc1 [M2N12]
Cdc25C
  IC50: 90 nM
Cdc25A
  IC50: 530 nM
[6]
  solubility, DMSO: DMSO : 11.11 mg/mL (28.21 mM; ultrasonic and warming and heat to 67°C)
Rlig1-AMP; [12]
  1-D Distance.npi: 96.6155
Rlig1-AMP; [13]
  1-D Distance: 465
Rlig1-AMP; sheet HTS hits
  Raw data [w Enyzm]: 6859
  Raw data [w/o Enzym]: 7324
Cdc25B
  IC50: 1390 nM

## CC(C)=CCc1cc([C@@H]2CC(=O)c3ccc(O)c(CC=C(C)C)c3O2)ccc1O [Glabrol]
[7]
  IC50: 24600 nM
[6]
  solubility, DMSO: DMSO : 100 mg/mL (254.78 mM; Need ultrasonic)
Rlig1-AMP; [13]
  1-D Distance: 1660
Rlig1-AMP; sheet HTS hits
  Raw data [w Enyzm]: 8836
  Raw data [w/o Enzym]: 10496

## Cl.Cl.O=C1c2c(O)ccc(O)c2C(=O)c2c(NCCNCCO)ccc(NCCNCCO)c21 [Mitoxantrone (dihydrochloride)]
Rlig1-AMP; HTS hits, MedChemExpress library
  1-D Distance.npi: 101.642
Rlig1-AMP; [14]
  1-D Distance: 208
Rlig1-AMP; HTS hits
  Raw data [w Enyzm]: 3238
  Raw data [w/o Enzym]: 3030
Protein kinase C (PKC)
  IC50: 8500 nM

## Cn1nc(-c2ccccc2)nc2c(=O)n(C)c(=O)nc1-2 [3-Phenyltoxoflavin]
Hsp90-TPR2A
  Kd: 585 nM
Rlig1-AMP; [15]
  1-D Distance: 2083
Rlig1-AMP; [16]
  1-D Distance.npi: 71.558
Rlig1-AMP; HTS hits
  Raw data [w Enyzm]: 15668
  Raw data [w/o Enzym]: 17751

## COc1cc(/C=C(\C#N)C(=O)c2ccc(O)c(O)c2)cc(I)c1O [I-OMe-Tyrphostin AG 538]
PI5P4Kα; ATP-competitive
  IC50: 1000 nM
Rlig1-AMP; [12]
  1-D Distance.npi: 98.3407
Rlig1-AMP; [13]
  1-D Distance: 515
Rlig1-AMP; sheet HTS hits
  Raw data [w Enyzm]: 1659
  Raw data [w/o Enzym]: 2174

## COc1ccc(-c2coc3cc(O)cc(O)c3c2=O)cc1 [Biochanin A]
FAAH [8]
  IC50: 1400 nM
FAAH [9]
  IC50: 2400 nM
[6]
  solubility, DMSO: DMSO : ≥ 50 mg/mL (175.90 mM)
Rlig1-AMP; [12]
  1-D Distance.npi: 79.7493
Rlig1-AMP; [13]
  1-D Distance: 1536
Rlig1-AMP; sheet HTS hits
  Raw data [w Enyzm]: 8945
  Raw data [w/o Enzym]: 10481
FAAH [10]
  IC50: 1800 nM

## Cc1ccc2c(-c3nc(Nc4cc(CN5C[C@@H](C)N[C@@H](C)C5)cc(C5CC5)c4)ncc3Cl)c[nH]c2c1 [HM43239]
[11]
  IC50: 1.8 nM
[6]
  solubility, DMSO: DMSO : 125 mg/mL (249.47 mM; Need ultrasonic)
Rlig1-AMP; [13]
  1-D Distance: 834
Rlig1-AMP; sheet HTS hits
  Raw data [w Enyzm]: 6467
  Raw data [w/o Enzym]: 5633
FLT3 D835Y
  IC50: […]
FLT3 WT
  IC50: […]
